Experiment [1] deals with T1, Carnitine O-palmitoyltransferase 1, liver isoform (Rattus norvegicus, UniProt P32198).
T1 sequence (P32198 whole entry): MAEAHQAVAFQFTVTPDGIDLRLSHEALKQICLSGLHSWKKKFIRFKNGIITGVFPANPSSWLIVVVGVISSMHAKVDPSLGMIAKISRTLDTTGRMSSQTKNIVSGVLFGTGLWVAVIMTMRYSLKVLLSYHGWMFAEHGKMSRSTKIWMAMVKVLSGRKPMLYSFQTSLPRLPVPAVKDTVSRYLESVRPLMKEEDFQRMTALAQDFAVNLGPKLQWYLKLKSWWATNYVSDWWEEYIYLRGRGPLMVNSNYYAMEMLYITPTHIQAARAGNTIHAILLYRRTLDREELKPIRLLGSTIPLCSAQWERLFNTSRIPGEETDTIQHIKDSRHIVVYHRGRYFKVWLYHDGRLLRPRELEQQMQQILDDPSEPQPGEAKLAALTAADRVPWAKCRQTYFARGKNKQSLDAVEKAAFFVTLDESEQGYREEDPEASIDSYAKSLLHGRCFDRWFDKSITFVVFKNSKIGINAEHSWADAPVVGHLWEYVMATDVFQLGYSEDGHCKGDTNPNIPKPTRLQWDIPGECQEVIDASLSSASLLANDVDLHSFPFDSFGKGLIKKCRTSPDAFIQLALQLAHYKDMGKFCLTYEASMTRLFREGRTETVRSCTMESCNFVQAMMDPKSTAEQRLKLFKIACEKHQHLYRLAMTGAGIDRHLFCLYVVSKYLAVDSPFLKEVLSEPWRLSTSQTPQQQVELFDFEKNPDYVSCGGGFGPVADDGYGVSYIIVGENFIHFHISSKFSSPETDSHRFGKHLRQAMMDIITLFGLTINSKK
As to the kind of experiment: (§1) SUPPLEMENTARY: Inhibition of Carnitine palmitoyltransferase 1, liver isoform.

For experiment [2], the target named is T2, Carnitine O-palmitoyltransferase 2, mitochondrial (Homo sapiens, UniProt P23786).
T2 sequence (P23786 whole entry): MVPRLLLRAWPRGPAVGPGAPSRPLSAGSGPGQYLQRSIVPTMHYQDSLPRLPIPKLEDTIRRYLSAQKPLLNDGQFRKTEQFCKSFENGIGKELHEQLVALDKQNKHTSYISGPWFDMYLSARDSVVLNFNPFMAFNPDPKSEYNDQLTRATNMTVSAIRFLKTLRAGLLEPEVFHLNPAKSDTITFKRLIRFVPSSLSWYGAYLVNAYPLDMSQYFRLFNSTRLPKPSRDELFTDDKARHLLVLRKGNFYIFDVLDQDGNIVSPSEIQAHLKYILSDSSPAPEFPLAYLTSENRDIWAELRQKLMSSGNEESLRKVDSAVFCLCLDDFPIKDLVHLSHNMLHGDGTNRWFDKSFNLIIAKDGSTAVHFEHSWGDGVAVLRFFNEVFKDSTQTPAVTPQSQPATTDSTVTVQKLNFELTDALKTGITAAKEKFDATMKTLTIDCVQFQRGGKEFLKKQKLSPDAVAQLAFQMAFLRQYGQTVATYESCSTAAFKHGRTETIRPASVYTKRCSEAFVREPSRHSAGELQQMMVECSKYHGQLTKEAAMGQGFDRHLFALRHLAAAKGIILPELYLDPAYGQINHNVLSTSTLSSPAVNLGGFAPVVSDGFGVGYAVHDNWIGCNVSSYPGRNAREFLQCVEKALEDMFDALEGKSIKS
As to the kind of experiment: (§2) SUPPLEMENTARY: Inhibition of Carnitine palmitoyltransferase 2.

Experiment [3] addresses T3, Carnitine O-palmitoyltransferase 2, mitochondrial (Rattus norvegicus, UniProt P18886).
T3 sequence (P18886 whole entry): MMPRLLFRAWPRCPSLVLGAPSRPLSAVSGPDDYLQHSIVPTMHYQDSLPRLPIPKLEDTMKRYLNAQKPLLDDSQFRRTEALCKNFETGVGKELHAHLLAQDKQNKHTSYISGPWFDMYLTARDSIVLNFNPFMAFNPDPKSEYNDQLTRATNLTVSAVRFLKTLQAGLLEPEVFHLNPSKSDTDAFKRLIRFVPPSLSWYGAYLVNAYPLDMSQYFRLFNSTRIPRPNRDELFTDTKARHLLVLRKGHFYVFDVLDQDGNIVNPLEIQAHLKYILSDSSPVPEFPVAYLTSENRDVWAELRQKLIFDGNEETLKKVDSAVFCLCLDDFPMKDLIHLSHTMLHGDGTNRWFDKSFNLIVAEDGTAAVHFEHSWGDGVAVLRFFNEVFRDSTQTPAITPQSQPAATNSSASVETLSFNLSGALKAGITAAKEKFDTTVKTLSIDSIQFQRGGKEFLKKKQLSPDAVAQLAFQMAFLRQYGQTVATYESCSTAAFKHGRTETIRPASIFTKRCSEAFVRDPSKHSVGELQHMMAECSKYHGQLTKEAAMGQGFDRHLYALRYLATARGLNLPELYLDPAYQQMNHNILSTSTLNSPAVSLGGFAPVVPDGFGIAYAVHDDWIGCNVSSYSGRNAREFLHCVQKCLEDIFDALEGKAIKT
Described as §2.

Experiment [4] deals with T4, Carnitine O-palmitoyltransferase 1, muscle isoform (Homo sapiens, UniProt Q92523).
T4 sequence (Q92523 whole entry): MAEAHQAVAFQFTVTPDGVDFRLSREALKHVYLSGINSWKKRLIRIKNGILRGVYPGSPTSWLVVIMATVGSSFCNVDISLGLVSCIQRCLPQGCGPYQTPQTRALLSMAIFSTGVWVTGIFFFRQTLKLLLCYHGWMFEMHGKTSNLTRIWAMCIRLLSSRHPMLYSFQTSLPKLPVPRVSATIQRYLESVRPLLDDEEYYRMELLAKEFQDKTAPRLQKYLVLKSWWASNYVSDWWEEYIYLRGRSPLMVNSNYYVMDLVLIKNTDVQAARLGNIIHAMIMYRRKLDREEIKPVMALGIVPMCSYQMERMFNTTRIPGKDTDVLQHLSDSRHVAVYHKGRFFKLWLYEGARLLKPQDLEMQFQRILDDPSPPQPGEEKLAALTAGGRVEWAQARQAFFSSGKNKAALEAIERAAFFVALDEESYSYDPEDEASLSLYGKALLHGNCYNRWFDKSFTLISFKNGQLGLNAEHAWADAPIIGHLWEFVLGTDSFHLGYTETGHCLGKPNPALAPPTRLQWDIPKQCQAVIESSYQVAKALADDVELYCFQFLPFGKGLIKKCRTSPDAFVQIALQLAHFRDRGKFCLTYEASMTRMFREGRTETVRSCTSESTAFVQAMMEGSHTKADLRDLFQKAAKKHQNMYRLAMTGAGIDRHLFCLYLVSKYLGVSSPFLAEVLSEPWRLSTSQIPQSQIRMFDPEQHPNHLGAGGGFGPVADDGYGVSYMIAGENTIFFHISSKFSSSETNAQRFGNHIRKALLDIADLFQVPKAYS
Briefly: SUPPLEMENTARY: Inhibition of Carnitine palmitoyltransferase 1, muscle isoform. More on the design: species or system Muscle tissue.

The target of experiment [5] is T5, Carnitine O-palmitoyltransferase 1, liver isoform (Homo sapiens, UniProt P50416).
T5 sequence (P50416 whole entry): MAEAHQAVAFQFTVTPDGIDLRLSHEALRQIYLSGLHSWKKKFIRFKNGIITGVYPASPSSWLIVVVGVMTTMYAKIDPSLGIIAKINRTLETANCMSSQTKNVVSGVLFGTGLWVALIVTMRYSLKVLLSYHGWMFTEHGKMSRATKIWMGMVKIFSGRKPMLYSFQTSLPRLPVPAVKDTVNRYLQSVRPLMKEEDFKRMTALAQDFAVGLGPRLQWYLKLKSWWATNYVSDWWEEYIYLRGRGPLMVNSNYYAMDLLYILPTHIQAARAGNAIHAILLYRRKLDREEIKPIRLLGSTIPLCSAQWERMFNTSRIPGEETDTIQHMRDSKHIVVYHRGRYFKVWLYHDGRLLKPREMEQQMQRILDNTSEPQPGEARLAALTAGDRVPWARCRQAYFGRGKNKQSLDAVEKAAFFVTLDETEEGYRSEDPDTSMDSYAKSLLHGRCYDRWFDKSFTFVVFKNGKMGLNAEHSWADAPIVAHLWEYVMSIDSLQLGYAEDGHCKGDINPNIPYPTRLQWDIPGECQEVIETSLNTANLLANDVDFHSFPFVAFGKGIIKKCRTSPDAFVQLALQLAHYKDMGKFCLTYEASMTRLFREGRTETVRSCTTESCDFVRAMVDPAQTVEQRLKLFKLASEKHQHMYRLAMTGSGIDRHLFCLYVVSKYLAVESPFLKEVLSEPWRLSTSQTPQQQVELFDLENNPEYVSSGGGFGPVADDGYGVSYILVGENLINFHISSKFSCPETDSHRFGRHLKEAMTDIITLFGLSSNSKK
Described as §1.

One may read the IC50 as the midpoint of a concentration-inhibition curve. A high value points to weaker potency.

Regarding `CC(=O)Nc1ccc(-c2csc([C@H]3CCCCN3C(=O)COc3ccccc3)n2)cc1`, the IC50 in experiment [1] was 0.12 µM; in experiment [2], 3.68 µM; in experiment [3] it was > 100 µM; in experiment [4], > 100 µM.

With `O=C(COc1ccccc1)N1CCCC[C@@H]1c1nc(-c2ccc(Br)s2)cs1`, the IC50 in experiment [1] was 1.36 µM; in experiment [2], 47.9 µM; in experiment [3], > 100 µM; in experiment [4], 5.66 µM.

As for `O=C(COc1ccccc1)N1CCCC[C@@H]1c1csc(-c2ccc(F)cc2)n1`, the IC50 in experiment [1] is 0.44 µM; in experiment [2] it was > 100 µM; in experiment [3] it was > 100 µM; in experiment [4], > 100 µM.

As for `O=C(COc1ccccc1)N1CCCCC1c1cc(=O)n(-c2ccc(F)cc2)[nH]1` (configuration not stated), the IC50 in experiment [5] is 0.281 µM; in experiment [1], 1.58 µM; in experiment [2], > 100 µM; in experiment [4], > 100 µM.

Turning to `O=C(COc1ccccc1)N1CCCC[C@@H]1c1nc(-c2ccc(O)cc2)cs1`, the IC50 was 0.227 µM in experiment [1], > 100 µM in experiment [2], > 100 µM in experiment [3] and 34.5 µM in experiment [4].

For the compound `O=C(COc1ccccc1)N1CCCC[C@@H]1c1csc(-c2ccc(C(F)(F)F)cn2)n1`, the IC50 in experiment [1] is 2 µM; in experiment [2], 49.8 µM; in experiment [3], > 100 µM; in experiment [4] it was > 100 µM.

For `O=C(COc1ccccc1)N1CCCC[C@@H]1c1csc(Cc2ccc(Cl)cc2)n1`, the IC50 in experiment [1] was 2.9 µM; in experiment [2], > 100 µM; in experiment [3], > 100 µM; in experiment [4] it was > 100 µM.

In experiment [1], `COc1ccc(C)cc1S(=O)(=O)N1CCCc2ccc(C(=O)Nc3ccc(CC(=O)O)cc3)cc21` registered an IC50 of 0.186 µM. That is a sub-micromolar value.

For the compound `O=C(COc1ccccc1)N1CCCC[C@@H]1c1csc(C2COc3ccccc3O2)n1` (some centres not stated), the IC50 in experiment [1] was 3.62 µM; in experiment [2], > 100 µM; in experiment [3] it was > 100 µM; in experiment [4] it was > 100 µM.

For the compound `O=C(O)c1cccc(-c2csc([C@H]3CCCCN3C(=O)COc3ccccc3)n2)n1`, the IC50 in experiment [1] was 0.301 µM; in experiment [2], 81.3 µM; in experiment [3], 99.1 µM; in experiment [4], 19.5 µM.

As for `O=C(COc1ccccc1)N1CCCC[C@@H]1c1nc(-c2ccc(O)cc2)no1`, the IC50 in experiment [5] came out at 0.0732 µM; in experiment [1], 0.124 µM; in experiment [2], 75.5 µM; in experiment [4] it was 39.2 µM.

`O=C1Cc2cc(-c3csc([C@H]4CCCCN4C(=O)COc4ccccc4)n3)ccc2N1`: the IC50 in experiment [1] is 0.154 µM; in experiment [2], 0.686 µM; in experiment [3], 42.8 µM; in experiment [4] it was > 100 µM.

With `O=C(COc1ccccc1)N1CCCC[C@@H]1c1nc(-c2ccc3c(c2)OCO3)cs1`, the IC50 in experiment [1] is 0.224 µM; in experiment [2] it was 56 µM; in experiment [3], > 100 µM; in experiment [4], > 100 µM.

For `O=C(COc1ccccc1)N1CCCC[C@@H]1c1csc(-c2cnccn2)n1`, the IC50 in experiment [1] was 0.589 µM; in experiment [2], 32.7 µM; in experiment [3], 88.9 µM; in experiment [4], 59.8 µM.

For the compound `N#Cc1cccc(-c2csc([C@H]3CCCCN3C(=O)COc3ccccc3)n2)c1`, the IC50 in experiment [1] turned out to be 0.128 µM; in experiment [2], 6.55 µM; in experiment [3] it was 68.1 µM; in experiment [4] it was 8.1 µM.

With `O=C(COc1ccccc1)N1CCCC[C@@H]1c1csc(-c2cccnc2)n1`, the half-maximal inhibitory concentration (IC50) in experiment [1] was 0.0627 µM; in experiment [2], > 100 µM; in experiment [3] it was 52.2 µM; in experiment [4] it was 4.16 µM.

As to `COC(=O)c1ccc(-c2nc([C@H]3CCCCN3C(=O)COc3ccccc3)cs2)cc1`, the IC50 in experiment [1] was 1.21 µM; in experiment [2] it was > 100 µM; in experiment [3], > 100 µM; in experiment [4], > 100 µM.

As to `COC(=O)c1cccc(-c2csc([C@H]3CCCCN3C(=O)COc3ccccc3)n2)n1`, the IC50 in experiment [1] is 0.172 µM; in experiment [2] it was 16.8 µM; in experiment [3], > 100 µM; in experiment [4] it was 7.62 µM.

In the case of `O=C(COc1ccccc1)N1CCCC[C@@H]1c1csc(-c2ccncc2)n1`, the IC50 in experiment [1] was 0.219 µM; in experiment [2] it was > 100 µM; in experiment [3], 79.6 µM; in experiment [4] it was > 100 µM.

`O=C(O)c1ccc(-c2nc([C@H]3CCCCN3C(=O)COc3ccccc3)cs2)cc1`: the IC50 in experiment [1] is 2.23 µM; in experiment [2], 5.1 µM; in experiment [3], > 100 µM; in experiment [4] it was > 100 µM.

Values taken from ChEMBL document CHEMBL3431459, “Roche carnitine palmitoyltransferase modulator screening data (supplementary data associated with the publication CHEMBL2216752)”.
